Where two headings read alike, the source gives them in different places. One block for each compound: values may come before it.
Experiments:
P2X2 [1] = biological target: T1, P2X2 (Homo sapiens, UniProt Q9UBL9); experiment: Plate-based aequorin luminescence assay of P2X2 expressed in yeast; format: cell-based; set-up: expressed in transfected cells; host or cells: Saccharomyces cerevisiae BY4741 dCne1p, genome-integrated under the GAL1 promoter, aequorin on a high-copy plasmid
T1 sequence (Q9UBL9 1-471): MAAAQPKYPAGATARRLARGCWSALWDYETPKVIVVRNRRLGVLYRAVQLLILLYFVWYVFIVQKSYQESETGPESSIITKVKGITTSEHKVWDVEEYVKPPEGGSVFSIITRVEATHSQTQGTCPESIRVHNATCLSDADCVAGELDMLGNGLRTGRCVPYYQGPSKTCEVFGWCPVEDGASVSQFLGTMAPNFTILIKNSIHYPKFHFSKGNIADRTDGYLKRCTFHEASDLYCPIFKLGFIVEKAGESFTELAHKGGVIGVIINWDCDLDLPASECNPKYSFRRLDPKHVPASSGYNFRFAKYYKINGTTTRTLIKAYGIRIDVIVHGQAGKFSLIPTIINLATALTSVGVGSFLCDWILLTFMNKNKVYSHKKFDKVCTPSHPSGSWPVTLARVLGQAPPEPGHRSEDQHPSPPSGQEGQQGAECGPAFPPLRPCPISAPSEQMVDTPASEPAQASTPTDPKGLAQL
Protocol: (§1) Ion channel activity in yeast was tested with the purinergic P2X ion channel family. Channel gating was assessed by an aequorin assay in which aequorin is co-expressed with the receptor and, upon addition of the prosthetic group coelenterazine and addition of calcium, blue light is released. The aequorin-based functional assay was performed in all seven P2X receptors (FIG. 8). P2X1-7 were integrated into the chromosome to mitigate copy number variation between clones and were induced with galactose with the pGal1 promoter. […] Among those receptors that didn't work, it was suspected that improvements in expression and trafficking can improve functionality. For example, by modulating trafficking domains within the P2X4 receptor, aggregation was reduced in vesicles (FIG. 9), and it is believed that this tactic can be employed in other receptors. […] This can be because P2X2 has the slowest desensitization rates of the family (and is often considered “non-desensitizing”) and has the highest unitary conductance (30 pS).
To determine whether or not this truncated channel gated in yeast, an aequorin-based functional assay was used. Here aequorin, a bioluminescent protein, emits a photon upon binding calcium. This is done with the aid of coelenterazine, which must be added exogenously to yeast. The reaction is not catalytic, and the off-rate of calcium is too slow to observe on the timescales utilized in our assays. To optimize conditions for expression of both the receptor and reporter, a combination of integration, low-copy, and high-copy vectors was used. At this point, it was only possible to produce a signal upon addition of ATP, the native ligand, when both the receptor and reporter were expressed on high-copy plasmids (FIG. 56).
(§2) BY4741ΔCne1p cells were transformed with vectors containing P2X variants. Transformants were validated and made competent for a subsequent transformation with a vector containing aequorin under the expression of the constitutive PGK2 promoter. Overnight cells were induced with 2% […] for 20 hours. Following receptor expression, cells were collected by centrifugation and concentrated to 500 μL. The concentrated cells were then incubated with 5 μL of 1 mg/mL coelenterazine for 30 minutes at room temperature. Washed cells were then resuspended in softening buffer (1 M Sorbitol, 25 mM EDTA, 50 mM DTT), followed by washes in 1 M sorbitol and water. Cells were then resuspended in 50 mM MES/Tris pH 6.5 and aliquoted into a 96-well plate. Using an F500, 25 μL of cells were monitored for luminescence for 5 seconds. Upon addition of ligand or buffer (100 μL), cells were monitored for luminescence for varying times. Cell lysis was performed with the addition of 100 μL Tween20. For inhibition, varying concentrations of suramin were incubated with cells. Luminescence was monitored before and after the addition of 100 μL of 10 μM ATP. Areas under the curve were calculated and plotted against a negative control to determine the IC50.

P2X1 = biological target: T2, P2X1 (Homo sapiens, UniProt P51575); experiment: Aequorin functional assay of P2X receptors in yeast; format: cell-based; conditions: upon ATP addition
T2 construct: expressed in transfected cells; host or cells: Saccharomyces cerevisiae BY4741 dCne1p, genome-integrated under the GAL1 promoter
T2 sequence (P51575 1-399): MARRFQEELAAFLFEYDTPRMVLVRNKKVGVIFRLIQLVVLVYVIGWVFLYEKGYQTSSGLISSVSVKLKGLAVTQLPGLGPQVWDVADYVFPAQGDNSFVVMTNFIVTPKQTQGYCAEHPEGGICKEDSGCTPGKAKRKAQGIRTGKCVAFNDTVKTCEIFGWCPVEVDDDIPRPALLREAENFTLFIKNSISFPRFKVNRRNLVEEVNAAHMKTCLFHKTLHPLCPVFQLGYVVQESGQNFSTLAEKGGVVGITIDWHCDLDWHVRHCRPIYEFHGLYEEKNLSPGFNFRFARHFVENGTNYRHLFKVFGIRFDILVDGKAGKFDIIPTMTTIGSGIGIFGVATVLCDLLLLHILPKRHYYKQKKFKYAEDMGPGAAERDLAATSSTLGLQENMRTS
Protocol: as §1
as §2, with “Cells were then resuspended in 50 mM MES/Tris pH 6.5 and aliquoted into a 96-well plate.” left out, “Cell lysis was performed with the addition of 100 μL Tween20. For inhibition, varying concentrations of suramin were incubated with cells.” left out

P2X7 = biological target: T3, P2X7 (Homo sapiens, UniProt Q99572); experiment: as above; format: cell-based; conditions: upon ATP addition
T3 construct: expressed in transfected cells; host or cells: Saccharomyces cerevisiae BY4741 dCne1p, genome-integrated under the GAL1 promoter
T3 sequence (Q99572 1-595): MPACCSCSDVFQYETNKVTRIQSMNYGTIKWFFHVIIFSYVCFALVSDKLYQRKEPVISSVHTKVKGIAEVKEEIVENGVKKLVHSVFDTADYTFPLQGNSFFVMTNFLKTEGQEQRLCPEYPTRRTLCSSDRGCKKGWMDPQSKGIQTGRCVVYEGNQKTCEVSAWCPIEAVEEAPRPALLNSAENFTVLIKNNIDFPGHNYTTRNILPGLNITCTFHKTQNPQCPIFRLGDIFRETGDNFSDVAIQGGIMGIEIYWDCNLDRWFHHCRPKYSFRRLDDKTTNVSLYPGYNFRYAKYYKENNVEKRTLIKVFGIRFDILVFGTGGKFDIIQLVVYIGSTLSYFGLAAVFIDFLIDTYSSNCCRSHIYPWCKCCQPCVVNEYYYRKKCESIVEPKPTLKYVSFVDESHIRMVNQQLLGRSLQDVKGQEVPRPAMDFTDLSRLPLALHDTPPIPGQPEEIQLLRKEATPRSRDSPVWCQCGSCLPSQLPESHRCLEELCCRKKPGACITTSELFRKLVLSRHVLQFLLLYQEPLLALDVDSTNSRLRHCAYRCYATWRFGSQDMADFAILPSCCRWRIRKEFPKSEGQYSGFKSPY
Protocol: as §1
as §2, with “Cells were then resuspended in 50 mM MES/Tris pH 6.5 and aliquoted into a 96-well plate.” left out, “Cell lysis was performed with the addition of 100 μL Tween20. For inhibition, varying concentrations of suramin were incubated with cells.” left out

P2X4 = biological target: T4, P2X4 (Homo sapiens, UniProt Q99571); experiment: as above; format: cell-based; conditions: upon ATP addition
T4 construct: expressed in transfected cells; host or cells: Saccharomyces cerevisiae BY4741 dCne1p, single-copy integration, GAL1 promoter
T4 sequence (Q99571 with tags, fused parts or gaps): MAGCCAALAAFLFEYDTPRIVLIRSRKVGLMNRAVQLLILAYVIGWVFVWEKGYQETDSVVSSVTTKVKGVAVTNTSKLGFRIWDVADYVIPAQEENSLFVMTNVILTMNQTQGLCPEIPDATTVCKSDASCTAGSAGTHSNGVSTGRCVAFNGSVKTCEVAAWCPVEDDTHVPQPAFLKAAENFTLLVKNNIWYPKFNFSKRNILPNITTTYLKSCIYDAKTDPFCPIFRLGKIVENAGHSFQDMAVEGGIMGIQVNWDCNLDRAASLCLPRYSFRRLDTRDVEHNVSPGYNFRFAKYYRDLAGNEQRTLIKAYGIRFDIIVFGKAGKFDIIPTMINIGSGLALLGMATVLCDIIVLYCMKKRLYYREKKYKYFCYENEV
Protocol: as §1
as §2, with “Cells were then resuspended in 50 mM MES/Tris pH 6.5 and aliquoted into a 96-well plate.” left out, “Cell lysis was performed with the addition of 100 μL Tween20. For inhibition, varying concentrations of suramin were incubated with cells.” left out

human 5HT1A = biological target: T5, human 5HT1A (Homo sapiens, UniProt P08908); experiment: GPCR-CPR proof of concept, emulsion PCR amplification in yeast; format: cell-based; conditions: cells treated with 250 μM serotonin vs negative control; single-copy integration at HO site
T5 construct: expressed in transfected cells; host or cells: Saccharomyces cerevisiae JG05-2.0 (2 micron plasmid, pTDH3) / JG05-1.0 (single-copy integration at HO)
T5 sequence (P08908 1-422): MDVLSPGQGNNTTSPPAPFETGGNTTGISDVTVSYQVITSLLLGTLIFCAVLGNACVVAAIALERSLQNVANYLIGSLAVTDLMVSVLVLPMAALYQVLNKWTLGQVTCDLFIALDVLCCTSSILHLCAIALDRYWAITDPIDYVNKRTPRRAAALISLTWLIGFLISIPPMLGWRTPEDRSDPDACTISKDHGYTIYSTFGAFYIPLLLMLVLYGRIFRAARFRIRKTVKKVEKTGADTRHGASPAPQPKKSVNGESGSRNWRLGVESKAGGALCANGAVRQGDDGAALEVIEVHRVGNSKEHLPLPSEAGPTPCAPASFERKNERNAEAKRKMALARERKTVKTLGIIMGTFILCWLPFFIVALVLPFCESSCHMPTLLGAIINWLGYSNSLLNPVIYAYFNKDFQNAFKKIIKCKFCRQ
From the text: Having shown functionality of the 5HT1A receptor, CPR strains (JG05-1.0) were constructed using this receptor. […] However, background was mitigated by increasing the pH of the CPR master mix to pH 8.8 and lowering the number of cycles from 35 to 20 during the emulsion PCR. […] Further optimization of expression parameters can greatly increase the signal:noise. For example, a much more pronounced difference can be seen when expressing the receptor from a high-copy plasmid. The experiments outlined here were also performed with cells growing with the ligand for 18 hours. By concentrating the cells and limiting the time of induction, a decrease in background signal can be seen.
Control cells were not induced. Cells (3 mL total) were collected after 18 hours of induction and spun in a tabletop centrifuge at 3,000×g for 5 minutes. The supernatant was discarded and the cell pellet was washed in water and then resuspended in 1 M sorbitol, 25 mM EDTA, 50 mM DTI′. Cells were collected again and washed in 1 M sorbitol. After another wash with water, cells were resuspended in 500 μL PCR mastermix (pH 8.0 or pH 8.8). The resuspended cells were placed into a 2 mL tube with a 1 mL rubber syringe plunger and 1200 μL of oil mix (876 Tegosoft DEC, 84 Gransurf W9, and 240 μL light mineral oil (Sigma-Aldrich)). […]

P2X2 [2] = biological target: T1, P2X2; conditions: Baqi et al., 2011; Lambrecht et al., 2002; read-out: range of reported IC50 values; cited from earlier work

SMILES: Nc1ncnc2c1ncn2[C@@H]1O[C@H](COP(=O)(O)OP(=O)(O)OP(=O)(O)O)[C@@H](O)[C@H]1O [ATP]
agonism / gating of P2X2 (P2X2 [1]; aequorin luminescence): showed an ATP-dependent calcium influx
EC50 (P2X2 [1]; dose-response, area under luminescence curve): 6.7 ± 1.5 µM
ligand-dependent gating, calcium influx (P2X1): showed an ATP-dependent calcium influx
ligand-dependent gating, calcium influx (P2X7): showed an ATP-dependent calcium influx
ligand-dependent gating, calcium influx (P2X4): showed an ATP-dependent calcium influx

SMILES: NCCc1c[nH]c2ccc(O)cc12 [serotonin]
increase in signal of CPR amplification product (human 5HT1A): 20 fold

IC50 (P2X2 [1]; cells equilibrated with suramin, then 10 μM ATP): 31.6 ± 1.4 µM
SMILES: Cc1ccc(C(=O)Nc2ccc(S(=O)(=O)O)c3cc(S(=O)(=O)O)cc(S(=O)(=O)O)c23)cc1NC(=O)c1cccc(NC(=O)Nc2cccc(C(=O)Nc3cc(C(=O)Nc4ccc(S(=O)(=O)O)c5cc(S(=O)(=O)O)cc(S(=O)(=O)O)c45)ccc3C)c2)c1 [suramin]
IC50 (P2X2 [2]): 2 to 48 µM

— patent US11746374B2, “Methods and platform for screening and selecting metabolites and their receptors” (BOARD OF REGENTS, THE UNIVERSITY OF TEXAS SYSTEM, priority 2017, dated 2023)
